Reference: the NIST ThermoML archive (doi:10.1016/j.jct.2017.07.013)
Numbers after ± are expanded uncertainties.

Assay: refractive index (Na D-line) (dimensionless); xn = mol fraction of the nth substance listed
Details: 101.3 kPa, Liquid, Standard Abbe refractometry

CCCC[n+]1ccn(C)c1.O=S(=O)([N-]S(=O)(=O)C(F)(F)F)C(F)(F)F + COC(=O)OC
refractive index
Details | 303.15 K | 308.15 K | 313.15 K | 318.15 K | 323.15 K
x1 = 0.0512 | 1.3757 ± 0.0011 | 1.3741 ± 0.0011 | 1.3744 ± 0.0011 | 1.3724 ± 0.0011 | 1.3719 ± 0.0011
x1 = 0.101 | 1.3844 ± 0.0011 | 1.383 ± 0.0011 | 1.3836 ± 0.0011 | 1.3819 ± 0.0011 | 1.3817 ± 0.0011
x1 = 0.1495 | 1.3913 ± 0.0011 | 1.39 ± 0.0011 | 1.3907 ± 0.0011 | 1.3892 ± 0.0011 | 1.3893 ± 0.0011
x1 = 0.1945 | 1.3965 ± 0.0011 | 1.3953 ± 0.0011 | 1.3959 ± 0.0011 | 1.3946 ± 0.0011 | 1.3948 ± 0.0011
x1 = 0.2994 | 1.4053 ± 0.0011 | 1.4042 ± 0.0011 | 1.4042 ± 0.0011 | 1.403 ± 0.0011 | 1.4033 ± 0.0011
x1 = 0.3999 | 1.4106 ± 0.0011 | 1.4095 ± 0.0011 | 1.4089 ± 0.0011 | 1.4077 ± 0.0011 | 1.4078 ± 0.0011
x1 = 0.4976 | 1.4141 ± 0.0011 | 1.4131 ± 0.0011 | 1.4119 ± 0.0011 | 1.4107 ± 0.0011 | 1.4106 ± 0.0011
x1 = 0.5842 | 1.4165 ± 0.0011 | 1.4155 ± 0.0011 | 1.414 ± 0.0011 | 1.4128 ± 0.0011 | 1.4126 ± 0.0011
x1 = 0.6886 | 1.4191 ± 0.0011 | 1.4181 ± 0.0011 | 1.4166 ± 0.0011 | 1.4154 ± 0.0011 | 1.4149 ± 0.0011
x1 = 0.7475 | 1.4204 ± 0.0011 | 1.4195 ± 0.0011 | 1.418 ± 0.0011 | 1.4168 ± 0.0011 | 1.4162 ± 0.0011
x1 = 0.8014 | 1.4216 ± 0.0011 | 1.4207 ± 0.0011 | 1.4193 ± 0.0011 | 1.4181 ± 0.0011 | 1.4172 ± 0.0011
x1 = 0.889 | 1.4233 ± 0.0011 | 1.4223 ± 0.0011 | 1.4208 ± 0.0011 | 1.4196 ± 0.0011 | 1.4185 ± 0.0011
x1 = 0.9526 | 1.4242 ± 0.0011 | 1.423 ± 0.0011 | 1.4213 ± 0.0011 | 1.4199 ± 0.0011 | 1.4183 ± 0.0011
x1 = 1 | 1.4245 ± 0.0011 | 1.4231 ± 0.0011 | 1.421 ± 0.0011 | 1.4195 ± 0.0011 | 1.4173 ± 0.0011
